Measured values reported in paper PMC5867665, “Targeting Multiple Effector Pathways in Pancreatic Ductal Adenocarcinoma with a G-Quadruplex-Binding Small Molecule” (Journal of Medicinal Chemistry, 2018).

Legend:
Type in all cases: cell-based, human
PANC-1 cells = assay: RNA-seq gene expression, PANC-1; details: for 1/2-SBSRNA4 logFC PANC-1 / A1BG logFC PANC-1 / A1BG-AS1 logFC PANC-1 / A2LD1 logFC PANC-1 / A4GALT logFC PANC-1: 300 nM gemcitabine
Excerpt: (§1) CM03 is a potent G4 ligand, as shown by the FRET and quantitative binding experiments reported here. We therefore reasoned that the potent CM03 antiproliferative activity on PDAC cells could be mediated through a G4-targeting mechanism. To test this hypothesis, we determined whether transcriptome changes upon early CM03 treatment were correlated with G4 presence in promoters and/or gene bodies. […] The time and dose of CM03 treatment were selected to reveal initial but robust mRNA changes while minimizing chronic effects due to cell toxicity. In both cell lines, the number of genes with altered expression (as defined by >0.5 increase in Log 2 of fold change [Log2 FC], or < −0.5 decrease; false discovery rate [FDR] < 0.1) increased with duration of CM03 treatment. In PANC-1 cells 2165 genes at 6 h and 3977 genes at 24 h were seen to change, while in MIA PaCa-2 cells, 5306 genes changed at 6 h and 5477 genes at 24 h compared to untreated controls (Supporting Information, Table 1). […] To validate that the targeting of G4-containing genes is not a general feature of antiproliferative agents, we also examined the effects of the first-line therapeutic agent for PDAC, gemcitabine,[37] a potent antiproliferative DNA synthesis inhibitor whose mechanism of action is G4-independent and which remains a standard therapy option in advanced PDAC. Both cell lines were treated with a range of gemcitabine concentrations (Supporting Information, Figure 4, Table 4) for 6 or 24 h.
(§2) The PDAC cell lines PANC-1 (ATCC, catalogue no. CRL-1469) and MIA PaCa-2 (ATCC, catalogue no. CRL-142) were maintained in DMEM (ThermoFisher, catalogue no. 11965092) supplemented with 10% (v/v) heat inactivated FBS (ThermoFisher) in a humidified atmosphere containing 5% CO2 at 37 °C. Cell lines were confirmed mycoplasma free by RNA-capture ELISA, and their genotypes were certified by STR profiling.
(§3) PANC-1 (0.35 × 10^6 cells/well) and MIA PaCa-2 (1.5 × 10^6 cells/well) cell lines were seeded overnight in 60 mm plates. Next day, cells were treated with 400 nM CM03 for 6 and 24 h. For gemcitabine treatment, cells were treated for 6 and 24 h with DMSO or 30 nM, 100 nM, 300 nM, 1 μM, 3 μM, and 10 μM gemcitabine-HCL for PANC-1 cells and 30 nM, 300 nM, and 3 μM gemcitabine-HCl for MIA PaCa-2 cells. Total RNA was extracted using the Qiagen RNeasy Plus Mini Kit (ThermoFisher, catalogue no. 74134) as per the manufacturer’s instructions. RNA quality (RIN > 9.0) was checked with an Aligent 2100 bioanalyzer RNA 6000 Nano Chip, and RNA concentration was quantified using a Qubit fluorometer (ThermoFisher) and Qubit RNA HS Assay Kit (Qiagen, catalogue no. Q32852). RNA-seq libraries were then generated using the Illumina Truseq RNA HT (stranded mRNA) kit (Illumina, catalogue no. RS-122–2103) as per the manufacturer’s instructions and sequenced using an Illumina HiSeq4000.
(§4) Fastq raw sequencing files were preprocessed using cutadapt[81] to remove sequencing adapters and low quality sequencing tails (options −q 10) and then aligned to the human genome (GRCh37/hg19) using tophat2[82] and using the UCSC gtf file provided by Illumina iGenomes as an annotation file (http://support.illumina.com/sequencing/sequencing_software/igenome.html). Gene counts were calculated using htseq-count[83] and the same gtf file. Differential expression analysis was done using the R package edgeR.[84] Differentially expressed genes were estimated independently for both cell lines (MIA PaCa-2 and PANC-1) and for the different time points (6 and 24 h) and were then intersected to inspect the common genes. The sequencing data is available at the GEO public functional genomics data repository (https://www.ncbi.nlm.nih.gov/geo/) as GSE105083. Details of the putative G4 sequence (PQs) analysis are given in the Supporting Information.

MIA PaCa-2 cells = assay: RNA-seq gene expression, MIA PaCa-2; details: for 1/2-SBSRNA4 logFC MIA PaCa-2 / A1BG logFC MIA PaCa-2 / A1BG-AS1 logFC MIA PaCa-2 / A2LD1 logFC MIA PaCa-2 / A4GALT logFC MIA PaCa-2: 300 nM gemcitabine
Excerpt: as §1, §2, §3, §4

[1] = tested on: PANC-1 and MIA PaCa-2 cells; assay: RNA-seq gene expression, genes common to PANC-1 and MIA PaCa-2
Excerpt: as §1, §2, §3, §4

[2] = RNA-seq, 400 nM CM03, 6 h, both cell lines combined
[3] = RNA-seq, 400 nM CM03, 24 h, both cell lines combined

Structure (SMILES): O=C1c2ccc3c4c(c(NCCN5CCCC5)cc(c24)C(=O)N1CCCN1CCOCC1)C(=O)N(CCCN1CCOCC1)C3=O [CM03, 2,7-bis(3-morpholinopropyl)-4-((2-(pyrrolidin-1-yl)ethyl)amino)benzo[lmn][3,8]phenanthroline-1,3,6,8(2H,7H)-tetraone]
- number of genes with altered expression (PANC-1 cells; 400 nM CM03, 6 h, PANC-1, Log2 FC >0.5 or < −0.5, FDR < 0.1): 2165
- number of genes with altered expression (PANC-1 cells; 400 nM CM03, 24 h, PANC-1): 3977
- A1BG Log FC ([6h] vs [Control]) PANC-1 (PANC-1 cells; RNA-seq, 400 nM CM03, 6 h): -0.2704
- A1BG-AS1 Log FC ([6h] vs [Control]) PANC-1 (PANC-1 cells; RNA-seq, 400 nM CM03, 6 h): -1.747
- A2LD1 Log FC ([6h] vs [Control]) PANC-1 (PANC-1 cells; RNA-seq, 400 nM CM03, 6 h): -0.1242
- AAAS Log FC ([6h] vs [Control]) PANC-1 (PANC-1 cells; RNA-seq, 400 nM CM03, 6 h): -0.01012
- AACS logFC 6h PANC-1 (PANC-1 cells; RNA-seq, 400 nM CM03, 6 h): -0.1667
- A1BG Log FC ([24h] vs [Control]) PANC-1 (PANC-1 cells; RNA-seq, 400 nM CM03, 24 h): -0.2368
- A2LD1 Log FC ([24h] vs [Control]) PANC-1 (PANC-1 cells; RNA-seq, 400 nM CM03, 24 h): -0.09987
- AAAS Log FC ([24h] vs [Control]) PANC-1 (PANC-1 cells; RNA-seq, 400 nM CM03, 24 h): -0.5132
- AACS logFC 24h PANC-1 (PANC-1 cells; RNA-seq, 400 nM CM03, 24 h): 0.00469
- 1/2-SBSRNA4 Log FC ([6h] vs [Control]) MIA PaCa-2 (MIA PaCa-2 cells; 400 nM CM03, 6 h): 0.2926
- A1BG Log FC ([6h] vs [Control]) MIA PaCa-2 (MIA PaCa-2 cells; 400 nM CM03, 6 h): 0.4876
- A2LD1 Log FC ([6h] vs [Control]) MIA PaCa-2 (MIA PaCa-2 cells; 400 nM CM03, 6 h): -0.3929
- AAAS Log FC ([6h] vs [Control]) MIA PaCa-2 (MIA PaCa-2 cells; 400 nM CM03, 6 h): -0.00561
- AACS LogFC 6h MIA PaCa-2 (MIA PaCa-2 cells; 400 nM CM03, 6 h): 0.2527
- 1/2-SBSRNA4 Log FC ([24h] vs [Control]) MIA PaCa-2 (MIA PaCa-2 cells; 400 nM CM03, 24 h): 0.1438
- A1BG Log FC ([24h] vs [Control]) MIA PaCa-2 (MIA PaCa-2 cells; 400 nM CM03, 24 h): -0.4265
- A2LD1 Log FC ([24h] vs [Control]) MIA PaCa-2 (MIA PaCa-2 cells; 400 nM CM03, 24 h): 0.03755
- A4GALT Log FC ([24h] vs [Control]) MIA PaCa-2 (MIA PaCa-2 cells; 400 nM CM03, 24 h): 0.6327
- AAAS Log FC ([24h] vs [Control]) MIA PaCa-2 (MIA PaCa-2 cells; 400 nM CM03, 24 h): -0.483
- AACS LogFC 24h MIA PaCa-2 (MIA PaCa-2 cells; 400 nM CM03, 24 h): -0.2395
- genes changed in both cell lines ([1]; 400 nM CM03, 6 h): 1185
- genes changed in both cell lines ([1]; 400 nM CM03, 24 h): 1917
- KRAS mRNA expression ([1]; RNA-seq, 400 nM CM03, 6 and 24 h, either pancreatic cell line): unaffected
- A1BG combined_logFC.6h.both [1, 2]: 0.1086
- A2LD1 combined_logFC.6h.both [1, 2]: -0.2585
- AAAS combined_logFC.6h.both [1, 2]: -0.007867
- AACS combined_logFC.6h.both [1, 2]: 0.04302
- A1BG combined_logFC.24h.both [1, 3]: -0.3316
- A2LD1 combined_logFC.24h.both [1, 3]: -0.03116
- A4GALT combined_logFC.24h.both [1, 3]: 0.4104
- AACS combined_logFC.24h.both [1, 3]: -0.1174

Structure (SMILES): Nc1ccn([C@@H]2O[C@H](CO)[C@@H](O)C2(F)F)c(=O)n1 [gemcitabine, reference compound]
- 1/2-SBSRNA4 logFC PANC-1 (PANC-1 cells; RNA-seq, 6 h): 0.2646
- A1BG logFC PANC-1 (PANC-1 cells; RNA-seq, 6 h): -0.08914
- A1BG-AS1 logFC PANC-1 (PANC-1 cells; RNA-seq, 6 h): 0.1407
- A2LD1 logFC PANC-1 (PANC-1 cells; RNA-seq, 6 h): -0.1053
- A4GALT logFC PANC-1 (PANC-1 cells; RNA-seq, 6 h): 0.005472
- 1/2-SBSRNA4 logFC PANC-1 (PANC-1 cells; RNA-seq, 24 h): 0.6908
- A1BG logFC PANC-1 (PANC-1 cells; RNA-seq, 24 h): -0.1465
- A1BG-AS1 logFC PANC-1 (PANC-1 cells; RNA-seq, 24 h): 1.012
- A2LD1 logFC PANC-1 (PANC-1 cells; RNA-seq, 24 h): -0.7315
- A4GALT logFC PANC-1 (PANC-1 cells; RNA-seq, 24 h): 0.6241
- 1/2-SBSRNA4 logFC MIA PaCa-2 (MIA PaCa-2 cells; 6 h): -0.2087
- A1BG logFC MIA PaCa-2 (MIA PaCa-2 cells; 6 h): 0.04195
- A1BG-AS1 logFC MIA PaCa-2 (MIA PaCa-2 cells; 6 h): -0.914
- A2LD1 logFC MIA PaCa-2 (MIA PaCa-2 cells; 6 h): -0.1941
- A4GALT logFC MIA PaCa-2 (MIA PaCa-2 cells; 6 h): -0.8586
- 1/2-SBSRNA4 logFC MIA PaCa-2 (MIA PaCa-2 cells; 24 h): -0.5295
- A1BG logFC MIA PaCa-2 (MIA PaCa-2 cells; 24 h): 0.6604
- A1BG-AS1 logFC MIA PaCa-2 (MIA PaCa-2 cells; 24 h): -0.1194
- A2LD1 logFC MIA PaCa-2 (MIA PaCa-2 cells; 24 h): -0.3751
- A4GALT logFC MIA PaCa-2 (MIA PaCa-2 cells; 24 h): -0.2021
